In patent US12522612B2, “PDE4 inhibitors, pharmaceutical compositions, and therapeutic applications” (BioTheryX, Inc., priority 2019, dated 2026):

Tested on: TNF-α
Test: Cell-based TNF-α inhibition assay in LPS-induced PBMCs (Meso Scale)
Settings: PBMC, PBMCs pretreated 1 h, LPS 100 ng/mL 18-24 h, relative to stimulated DMSO control; for inhibition at 0.1 µM: compound concentration 0.1 μM; for inhibition at 1 µM: compound concentration 1 μM
Protocol: Frozen primary blood mononuclear cells (PBMCs) were quick thawed, washed once with RPMI 1640 media supplemented with 10% fetal bovine serum, 1% penicillin, and 1% streptomycin, and plated in a 96 well plate at 200,000 cells per well. The cells were pretreated with DMSO only as a control or a compound for 1 h, and then induced with LPS (lipopolysaccharide) (100 ng/mL) for 18-24 h. The supernatant was analyzed for TNF-α using the Meso Scale assay. Compound activity was determined as a percentage of the stimulated DMSO control. The results are summarized in Table 1, where A represents a percent inhibition value ≥60%; B represents a percent inhibition value <60% and ≥40%; C represents a percent inhibition value <40% and >20%; and D represents a single percent inhibition value <20%.

SMILES | inhibition at 0.1 µM [%] | inhibition at 1 µM [%]
CCOc1cc([C@@H](CS(C)(=O)=O)N2Cc3c(csc3NC(=O)C(F)(F)F)C2=O)ccc1OC [Compound A1, (S)—N-(5-(1-(3-ethoxy-4-methoxyphenyl)-2-(methylsulfonyl)ethyl)-4-oxo-5,6-dihydro-4H-thieno[3,4-c]pyrrol-1-yl)-2,2,2-trifluoroacetamide] | < 20 | 40 to 60
CCOc1cc([C@@H](CS(C)(=O)=O)N2Cc3c(NC(=O)COC)csc3C2=O)ccc1OC [Compound A2, (S)—N-(5-(1-(3-ethoxy-4-methoxyphenyl)-2-(methylsulfonyl)ethyl)-6-oxo-5,6-dihydro-4H-thieno[2,3-c]pyrrol-3-yl)-2-methoxyacetamide] | 20 to 40 | 20 to 40
CCOc1cc([C@@H](CS(C)(=O)=O)N2Cc3c(NC(=O)C4CC4)csc3C2=O)ccc1OC [Compound A3, (S)—N-(5-(1-(3-ethoxy-4-methoxyphenyl)-2-(methylsulfonyl)ethyl)-6-oxo-5,6-dihydro-4H-thieno[2,3-c]pyrrol-3-yl)cyclopropanecarboxamide] | 20 to 40 | 20 to 40
COc1ccc([C@@H](CS(C)(=O)=O)N2C(=O)c3csc(NC(C)=O)c3C2=O)cc1OC1CC1 [Compound A4, (S)—N-(5-(1-(3-cyclopropoxy-4-methoxyphenyl)-2-(methylsulfonyl)ethyl)-4,6-dioxo-5,6-dihydro-4H-thieno[3,4-c]pyrrol-1-yl)acetamide] | 40 to 60 | ≥ 60
COc1ccc([C@H](CS(C)(=O)=O)N2C(=O)c3csc(NC(C)=O)c3C2=O)cc1OC1CC1 [Compound A5, (R)—N-(5-(1-(3-cyclopropoxy-4-methoxyphenyl)-2-(methylsulfonyl)ethyl)-4,6-dioxo-5,6-dihydro-4H-thieno[3,4-c]pyrrol-1-yl)acetamide] | < 20 | 20 to 40
CCOc1cc([C@@H](CS(=O)(=O)C2CC2)N2C(=O)c3csc(NC(C)=O)c3C2=O)ccc1OC [Compound A6, (S)—N-(5-(2-(cyclopropylsulfonyl)-1-(3-ethoxy-4-methoxyphenyl)ethyl)-4,6-dioxo-5,6-dihydro-4H-thieno[3,4-c]pyrrol-1-yl)acetamide] | < 20 | 20 to 40
CCOc1cc([C@@H](CS(=O)(=O)C2CC2)N2C(=O)c3csc(NC(=O)C(F)(F)F)c3C2=O)ccc1OC [Compound A7, (S)—N-(5-(2-(cyclopropylsulfonyl)-1-(3-ethoxy-4-methoxyphenyl)ethyl)-4,6-dioxo-5,6-dihydro-4H-thieno[3,4-c]pyrrol-1-yl)-2,2,2-trifluoroacetamide] | < 20 | < 20
CCOc1cc([C@H](CS(=O)(=O)C2CC2)N2C(=O)c3csc(NC(=O)C(F)(F)F)c3C2=O)ccc1OC [Compound A8, (R)—N-(5-(2-(cyclopropylsulfonyl)-1-(3-ethoxy-4-methoxyphenyl)ethyl)-4,6-dioxo-5,6-dihydro-4H-thieno[3,4-c]pyrrol-1-yl)-2,2,2-trifluoroacetamide] | < 20 | < 20
CCOc1cc([C@H](CS(=O)(=O)C2CC2)N2C(=O)c3csc(NC(=O)COC)c3C2=O)ccc1OC [Compound A9, (R)—N-(5-(2-(cyclopropylsulfonyl)-1-(3-ethoxy-4-methoxyphenyl)ethyl)-4,6-dioxo-5,6-dihydro-4H-thieno[3,4-c]pyrrol-1-yl)-2-methoxyacetamide] | 40 to 60 | ≥ 60
CCOc1cc([C@H](CS(=O)(=O)C2CC2)N2C(=O)c3csc(NC(C)=O)c3C2=O)ccc1OC [Compound A10, (R)—N-(5-(2-(cyclopropylsulfonyl)-1-(3-ethoxy-4-methoxyphenyl)ethyl)-4,6-dioxo-5,6-dihydro-4H-thieno[3,4-c]pyrrol-1-yl)acetamide] | < 20 | ≥ 60
CCOc1cc([C@@H](CS(=O)(=O)C2CC2)N2C(=O)c3csc(NC(=O)COC)c3C2=O)ccc1OC [Compound A11, (S)—N-(5-(2-(cyclopropylsulfonyl)-1-(3-ethoxy-4-methoxyphenyl)ethyl)-4,6-dioxo-5,6-dihydro-4H-thieno[3,4-c]pyrrol-1-yl)-2-methoxyacetamide] | 20 to 40 | ≥ 60
CCOc1cc([C@@H](CS(C)(=O)=O)N2C(=O)c3cc(CCCCC(=O)N4CCC(C#Cc5cccc6c5CN(C5CCC(=O)NC5=O)C6=O)CC4)cc(NC(C)=O)c3C2=O)ccc1OC (stereo partly drawn) [Compound B16, N-(6-(5-(4-((2-(2,6-dioxopiperidin-3-yl)-1-oxoisoindolin-4-yl)ethynyl)piperidin-1-yl)-5-oxopentyl)-2-((S)-1-(3-ethoxy-4-methoxyphenyl)-2-(methylsulfonyl)ethyl)-1,3-dioxoisoindolin-4-yl)acetamide] | ≥ 60 | ≥ 60
CCOc1cc([C@@H](CS(C)(=O)=O)N2C(=O)c3cccc(NC(=O)CCOCCOCCOCCNc4cccc5c4C(=O)N(C4CCC(=O)NC4=O)C5=O)c3C2=O)ccc1OC (stereo partly drawn) [Compound B43, 3-(2-(2-(2-((2-(2,6-Dioxopiperidin-3-yl)-1,3-dioxoisoindolin-4-yl)amino)ethoxy)-ethoxy)ethoxy)-N-(2-((S)-1-(3-ethoxy-4-methoxyphenyl)-2-(methylsulfonyl)ethyl)-1,3-dioxoisoindolin-4-yl)propanamide] | ≥ 60 | ≥ 60
CCOc1cc([C@@H](CS(C)(=O)=O)N2C(=O)c3cccc(NC(=O)CCCCCCNCc4ccc(OCc5scc6c5CN([C@H]5CCC(=O)NC5=O)C6=O)cc4)c3C2=O)ccc1OC [Compound B44, 7-((4-((5-((S)-2,6-Dioxopiperidin-3-yl)-4-oxo-5,6-dihydro-4H-thieno[3,4-c]pyrrol-1-yl)methoxy)benzyl)amino)-N-(2-((S)-1-(3-ethoxy-4-methoxyphenyl)-2-(methylsulfonyl)ethyl)-1,3-dioxoisoindolin-4-yl)heptanamide] |  | ≥ 60
O=C1CCC(N2Cc3c(cc(F)cc3C3CCN(CCCCCCCCCOc4cc(C(=O)Nc5c(Cl)cncc5Cl)ccc4OC(F)F)CC3)C2=O)C(=O)N1 (centres unmarked) [Compound B45, N-(3,5-Dichloropyridin-4-yl)-4-(difluoromethoxy)-3-((9-(4-(2-(2,6-dioxopiperidin-3-yl)-6-fluoro-1-oxoisoindolin-4-yl)piperidin-1-yl)nonyl)oxy)benzamide] |  | ≥ 60
O=C1CCC(N2Cc3c(cc(F)cc3C3CCN(CCCCCOc4cc(C(=O)Nc5c(Cl)cncc5Cl)ccc4OC(F)F)CC3)C2=O)C(=O)N1 (centres unmarked) [Compound B46, N-(3,5-Dichloropyridin-4-yl)-4-(difluoromethoxy)-3-((5-(4-(2-(2,6-dioxopiperidin-3-yl)-6-fluoro-1-oxoisoindolin-4-yl)piperidin-1-yl)pentyl)oxy)benzamide] |  | ≥ 60
CCOc1cc([C@@H](CS(C)(=O)=O)N2C(=O)c3cc(C#CCCCCCN4CCC(c5cc(F)cc6c5CN(C5CCC(=O)NC5=O)C6=O)CC4)cc(NC(C)=O)c3C2=O)ccc1OC (stereo partly drawn) [Compound B47, N-(6-(7-(4-(2-(2,6-dioxopiperidin-3-yl)-6-fluoro-1-oxoisoindolin-4-yl)piperidin-1-yl)hept-1-yn-1-yl)-2-((S)-1-(3-ethoxy-4-methoxyphenyl)-2-(methylsulfonyl)ethyl)-1,3-dioxoisoindolin-4-yl)acetamide] |  | ≥ 60
CCOc1cc([C@@H](CS(C)(=O)=O)N2C(=O)c3cccc(NC(=O)COCCOCCOCCOCCNc4cccc5c4C(=O)N(C4CCC(=O)NC4=O)C5=O)c3C2=O)ccc1OC (stereo partly drawn) [Compound B48, 14-((2-(2,6-Dioxopiperidin-3-yl)-1,3-dioxoisoindolin-4-yl)amino)-N-(2-((S)-1-(3-ethoxy-4-methoxyphenyl)-2-(methylsulfonyl)ethyl)-1,3-dioxoisoindolin-4-yl)-3,6,9,12-tetraoxatetradecan-1-amide] |  | ≥ 60
COc1ccc(C2CNC(=O)C2)cc1OCCCCCCCN1CCC(c2cc(F)cc3c2CN(C2CCC(=O)NC2=O)C3=O)CC1 (centres unmarked) [Compound B53, 3-(6-Fluoro-4-(1-(7-(2-methoxy-5-(5-oxopyrrolidin-3-yl)phenoxy)heptyl)piperidin-4-yl)-1-oxoisoindolin-2-yl)piperidine-2,6-dione] |  | < 20
COc1ccc(N2C(=O)c3ccc(NCCCCCCCN4CCC(c5cc(F)cc6c5CN(C5CCC(=O)NC5=O)C6=O)CC4)cc3C2=O)cc1OC1CCCC1 (centres unmarked) [Compound B54, 2-(3-(Cyclopentyloxy)-4-methoxyphenyl)-5-((7-(4-(2-(2,6-dioxopiperidin-3-yl)-6-fluoro-1-oxoisoindolin-4-yl)piperidin-1-yl)heptyl)amino)isoindoline-1,3-dione] |  | 20 to 40
COc1ccc(C2CNC(=O)C2)cc1OCCCCCCCN1CCC(c2cc3c(cc2F)C(=O)N(C2CCC(=O)NC2=O)C3)CC1 (centres unmarked) [Compound B55, 3-(6-Fluoro-5-(1-(7-(2-methoxy-5-(5-oxopyrrolidin-3-yl)phenoxy)heptyl)piperidin-4-yl)-1-oxoisoindolin-2-yl)piperidine-2,6-dione] |  | 20 to 40
COc1ccc(N2Cc3ccc(NCCCCCCCN4CCC(c5cc(F)cc6c5CN(C5CCC(=O)NC5=O)C6=O)CC4)cc3C2=O)cc1OC1CCCC1 (centres unmarked) [Compound B56, 3-(4-(1-(7-((2-(3-(Cyclopentyloxy)-4-methoxyphenyl)-3-oxoisoindolin-5-yl)amino)heptyl)piperidin-4-yl)-6-fluoro-1-oxoisoindolin-2-yl)piperidine-2,6-dione] |  | 40 to 60
